In publication PMC4689457, “Immucillins ImmA and ImmH Are Effective and Non-toxic in the Treatment of Experimental Visceral Leishmaniasis” (PLoS Neglected Tropical Diseases, 2015):
Where two headings read alike, the source gives them in different places.

How the values were obtained:
[1] = test system: IgG2a response, IL-10; settings: cited from earlier work; for IL-10 reduction: 1 day after complete treatment
[2] = test system: amastigotes; settings: cited from earlier work
[3] = test system: L. (L.) infantum chagasi; assay: Liver parasite load (LDU) in infected BALB/c mice after chemotherapy; type: in vivo; settings: 2.5 mg/kg/day ip 5 days
Protocol: (§1) Female BALB/c mice, 8 week old, were infected through the caudal vein with 10^7 amastigotes of L. (L.) infantum (strain IOC-L 3324) isolated from infected hamsters spleens. After 15 days of infection, mice (n = 5 per treatment) were injected by the intraperitoneal route (ip) with daily doses for 5 days of 2.5 mg/Kg of IA, IH, SMIH [30, 31] or the control drug Glucantime (Sanofi Aventis, batch 0929280802) (Fig 1). Immucillins were synthesized at the Ferrier Research Institute, Victoria University of Wellington, New Zealand. Uninfected and infected mice treated only with saline were included as controls for the treatment cohorts. On days 1, 15, and 30 after complete treatment, the animals were euthanized with CO2. Blood samples were collected for sera analysis and weight of spleens, livers and total body were determined. Spleens were also used for determination of cytokine expression. The parasite load was evaluated in Giemsa-stained liver smears and expressed in LDU values (Leishman Donovan units of Stauber = number of amastigotes per 1000 liver cell nuclei/mg of liver weight). The levels of urea, creatinine, glutamate pyruvate transaminase (GPT) and glutamate oxaloacetate transaminase ([…]) were assessed in plasma by standard clinical laboratory procedures using a Wiener lab Metrolab 2300 (Laborlife Análises Clínicas laboratory, Rio de Janeiro).

[4] = test system: L. (L.) infantum chagasi infection; assay: Survival, body and organ weights of infected treated BALB/c mice; type: in vivo; settings: end of the experiment
Protocol: as §1

[5] = test system: anti-NH36 IgG, IgG1 and IgG2a antibodies; assay: Anti-NH36 antibody ELISA in sera of infected treated mice; type: in vivo, BALB/c mice
Protocol: The NH36 gene of Leishmania (L.) donovani (EMBL, Genbank and DDJB data bases, access number AY007193) with a His6tag at the C-terminal was cloned in E. coli Bl21DE3. Expression of the recombinant NH36 was obtained by induction with 0.5mM IPTG and overnight incubation at 20°C. Cultures were harvested by centrifugation and the pellets submitted to sonication during 10 minutes with cycles of 30 sec. and intervals of 55 sec. Sonicates were centrifuged and their supernatants separated for purification by column chromatography using Ni-NTA Superflow resin (Qiagen, USA). The column was eluted with a 50mM potassium phosphate, 300 mM NaCl buffer, pH: 8.0, using a 50 to 300mM imidazole gradient. The fraction containing NH36 recombinant antigen was recovered, dyalized and preserved at -80°C. Sera were collected from mice by intracardiac puncture on day 1, 15 and 30 following complete chemotherapy and assayed for the presence of anti-NH36 IgG, IgG1 and IgG2a antibodies. For that purpose the recombinant NH36 antigen (40 μg/mL) was solubilized in 0.1M sodium carbonate buffer (8.4 g of NaHCO3, 3.56 g of Na2CO3 per L; pH 9.6), and used to coat flat-bottom 96-well plates. Antibodies were detected by goat anti-mice IgG (Sigma), anti-IgG1 and anti-IgG2a peroxidase-conjugates (Southern Biotechnology Associates, Birmingham, AL, EEUU) in a 1:1000 dilution. The absorbance values at 492 ηm were compared using a 1:100 dilution of the serum samples. Results are expressed as mean values of triplicates. We used the mean average + 2 SD of serum from normal uninfected controls in order to calculate the cut-off value according to the Youden test.

[6] = test system: splenocytes; assay: Cytokine secretion by splenocytes of uninfected treated mice incubated in vitro with the respective drug; type: cell-based, BALB/c mice; settings: splenocytes + 10 μg/ml drug
Protocol: (§2) Female BALB/c mice, 8 weeks old, were injected intraperitoneally with daily doses 2.5 mg/Kg of IA, IH, SMIH or Glucantime during five days and euthanized on day 1, 15 and 30 after complete treatment. For evaluation of the T cell response, spleens were removed and splenocytes were incubated for 24 h in vitro with the lysate of 10^6 stationary phase promastigotes of L. (L.) infantum chagasi (MHOM/BR/1974/PP75), with 25 μg/mL NH36, at 37°C and 5% CO2, during 72 h for the assay of the cytokine expression in the supernatants. Additionally, splenocytes from uninfected BALB/c mice either untreated or previously treated with IA, IH, SMIH or Glucantime were incubated in vitro with 10 μg/mL of each respective drug. For flow cytometry analysis (FACS analysis), splenocytes were incubated for 24 h with the antigens or drugs, labeled with anti-CD4FITC (clone GK1.5), anti-CD8FITC (clone 53–6.7) monoclonal antibodies (R&D systems, Inc) or with rat anti-mouse CD19-PerCP-Cy5.5 and 100,000 lymphocyte counts were acquired using a BD FACScalibur apparatus. Data was analyzed using the Flow-Jo program. The secretion of cytokines was evaluated in the supernatants of splenocytes by an ELISA assay.

[7] = test system: CD4+, CD8+ and CD19+ lymphocytes; assay: CD4+, CD8+ and CD19+ lymphocyte frequencies by flow cytometry in splenocytes of uninfected treated mice; type: cell-based, BALB/c mice; settings: for CD8+ T cell frequencies: day 1 after treatment
Protocol: as §2

[8] = Renal and hepatic function markers in plasma of mice; type: in vivo, BALB/c mice
Protocol: as §1

[9] = Body weight and renal/hepatic markers in sera of infected treated hamsters; type: in vivo, CB golden hamster
Protocol: (§3) The efficacy of immucillins was also assayed in the CB golden hamster susceptible model. Females, 8 weeks old, were infected through the intracardiac route with 2 x 10^7 amastigotes of L. (L.) infantum chagasi (strain IOC-L 3324) isolated from infected hamsters spleens. Thirty days after infection, the animals were treated with 2.5 mg/kg daily doses of Glucantime, IA, IH or SMIH, through the ip route, for five days. Ten days after complete treatment the animals were euthanized, their parasite load was determined in livers and the renal function evaluated in sera samples as described above.

[10] = test system: L. (L.) infantum chagasi promastigotes; parameters: method as in PMID 25909893; settings: cited from earlier work
[11] = test system: L. (L.) amazonensis promastigotes; parameters: method as in PMID 25909893; settings: cited from earlier work
[12] = test system: L. (L.) infantum chagasi; assay: Liver parasite load in infected CB hamsters after chemotherapy; type: in vivo, CB golden hamster; settings: 2.5 mg/kg/day ip 5 days, 10 days after complete treatment; for liver parasite load: untreated 16,334 LDU
Protocol: as §3

[13] = molecular target: L. (L.) donovani recombinant NH36; parameters: method as in PMID 25909893; settings: ref 29; read-out: Ki, inhibition of NH36 enzymatic activity; cited from earlier work
[14] = test system: L. (L.) infantum chagasi amastigotes; parameters: method as in PMID 25909893; settings: 10 μM; cited from earlier work
[15] = test system: macrophage; parameters: method as in PMID 25909893; settings: 10 μM; cited from earlier work
[16] = test system: visceral leishmaniasis; settings: oral therapy, cited from earlier work
[17] = test system: blood PNP; parameters: method as in PMID 19170524; settings: mice; cited from earlier work
[18] = test system: human lymphocytes; settings: cited from earlier work
[19] = cited from earlier work
[20] = day 1 after complete treatment, vs untreated infected controls
[21] = day 30 after complete treatment

1,3,4-tiadiazolium-2 aminide
IL-10 reduction [1]: 75%

N.N.[Cl][Pt][Cl] [cisplatin]
reduction in parasite burden ([2]; ref 30): 75%
reduction in parasite burden ([2]; ref 31): 80%
reduction in parasite burden ([2]; ref 32): 50%
IL-10 reduction [1]: 50%
enhancement of the IgG2a response ([1]; ref 30, 31): 50–55%

Glucantime [reference compound]
reduction of liver parasite load (LDU) [3, 20]: 46%
reduction of liver parasite load (LDU) [3, 21]: 88%
survival [4]: 100%
anti-NH36 IgG2a increase vs untreated infected controls ([5]; day 1): 67%
IL-10 levels [6]: 509 pg/mL
CD4+ T cell frequencies (in words) [7]: high CD4+ T cell increase (p<0.05) only on day 1
CD19 B cell frequencies enhanced by previous treatment [7]: ~ 30%
CD8+ T cell frequencies [7]: increased
renal (urea and creatinine) and hepatic (GOT and GTP) toxicity [8]: Pronounced toxicity
increase in GOT serum level ([8]; 2.5 mg/kg/day ip 5 days): 6 fold
increase in GPT serum level ([8]; 2.5 mg/kg/day ip 5 days): 9 fold
increase in creatinine serum level ([8]; 2.5 mg/kg/day ip 5 days): 9 fold
increase in urea serum level ([8]; 2.5 mg/kg/day ip 5 days): 4 fold
body weight ([9]; infected hamsters): increase in body weight
decrease of creatinine ([9]; infected hamsters): 41%
reduction of blood urea levels ([9]; infected hamsters): ~ 50%

Nc1nc(O)c2[nH]cc(CNC(CO)CO)c2n1 [SMIG]
concentrations inhibiting growth of promastigotes in vitro [10]: nanomolar to micromolar
concentrations inhibiting growth of promastigotes in vitro [11]: nanomolar to micromolar

O=c1[nH]cnc2c([C@@H]3N[C@H](CO)[C@@H](O)[C@H]3O)c[nH]c12 [IH]
reduction of liver parasite load (LDU) [3, 21]: 85%
survival [4]: 100%
CD19 B cell frequencies enhanced by previous treatment [7]: sustained
liver parasite load reduction [12]: 70%
liver parasite load [12]: 4,905 LDU
decrease of creatinine ([9]; hamster, in vivo): 63%
reduction of GOT levels ([9]; hamster, in vivo): ~ 30%
reduction of blood urea levels ([9]; hamster, in vivo): ~ 50%
body weight ([9]; infected hamsters): increase in body weight
Ki [13]: 0.019 µM
concentrations inhibiting growth of promastigotes in vitro [10]: nanomolar to micromolar
concentrations inhibiting growth of promastigotes in vitro [11]: nanomolar to micromolar
inhibition of intracellular replication of amastigotes [14]: 95%
damage to macrophage viability [15]: no apparent damage

Nc1nc2c(CN3C[C@H](CO)[C@@H](O)C3)c[nH]c2c(=O)[nH]1 [DIG]
concentrations inhibiting growth of promastigotes in vitro [10]: nanomolar to micromolar
concentrations inhibiting growth of promastigotes in vitro [11]: nanomolar to micromolar

O=c1[nH]cnc2c(CN3C[C@H](CO)[C@@H](O)C3)c[nH]c12 [DIH]
concentrations inhibiting growth of promastigotes in vitro [10]: nanomolar to micromolar
concentrations inhibiting growth of promastigotes in vitro [11]: nanomolar to micromolar

CCCCCCCCCCCCCCCCOP(=O)([O-])OCC[N+](C)(C)C [Miltefosine]
cure rates ([16]; Brazil): 50%
success rates ([16]; India): 94%
reduction in parasite burden ([2]; ref 46): 50%
enhancement of the IgG2a response ([1]; ref 46): 75%

O=c1[nH]cnc2c(CNC(CO)CO)c[nH]c12 [SMIH]
reduction of liver parasite load (LDU) [3, 21]: 85%
survival [4]: 100%
CD4+ T cell frequencies (in words) [7]: lower CD4+ T cell frequencies
CD19 B cell frequencies enhanced by previous treatment [7]: ~ 30%
CD8+ T cell frequencies [7]: diminished
liver parasite load reduction [12]: no cure
reduction of blood urea levels ([9]; infected hamsters): ~ 50%
concentrations inhibiting growth of promastigotes in vitro [10]: nanomolar to micromolar
concentrations inhibiting growth of promastigotes in vitro [11]: nanomolar to micromolar
inhibition of intracellular replication of amastigotes [14]: 95%
damage to macrophage viability [15]: no apparent damage
oral availability [17]: orally available

Nc1ncnc2c([C@@H]3N[C@H](CO)[C@@H](O)[C@H]3O)c[nH]c12 [IA]
reduction of liver parasite load (LDU) [3, 20]: 45%
reduction of liver parasite load (LDU) [3, 21]: 89%
survival [4]: 100%
anti-NH36 IgG1 in infected untreated controls higher than in treated mice ([5]; day 1): 69%
anti-NH36 IgG1 in infected untreated controls higher than in treated mice ([5]; day 15): 64%
anti-NH36 IgG1 in infected untreated controls higher than in treated mice ([5]; day 30): 57%
IL-10 levels [6]: 113 pg/mL
CD19 B cell frequencies enhanced by previous treatment [7]: ~ 30%
CD4+ T cell frequency, higher proportion than previously untreated controls ([7]; day 1): 57%
CD8+ T cell frequencies [7]: increased
CD4+ T cell frequency, higher proportion than previously untreated controls ([7]; day 15): 21%
CD4+ T cell frequency, higher proportion than previously untreated controls ([7]; day 30): 29%
liver parasite load reduction [12]: 86%
liver parasite load [12]: 2,038 LDU
body weight ([9]; infected hamsters): increase in body weight
decrease of creatinine ([9]; infected hamsters): 66%
Ki [13]: 0.08 µM
concentrations inhibiting growth of promastigotes in vitro [10]: nanomolar to micromolar
concentrations inhibiting growth of promastigotes in vitro [11]: nanomolar to micromolar
inhibition of intracellular replication of amastigotes [14]: 95%
damage to macrophage viability [15]: no apparent damage
mutagenicity or chromosomal aberrations [18]: did not induced mutagenicity or chromosomal aberrations
metabolic stability ([19]; mouse, rat, guinea pig and cynomolgus macaque): metabolically stable
clearance from plasma ([19]; ref 37): rapid clearance
